The results in this text go back to publication PMC3425385 (2011).

The target in the test is T1, KIAA1363 (AADACL1, NCEH1) (Homo sapiens, UniProt Q6PIU2).
T1 sequence (Q6PIU2 1-408): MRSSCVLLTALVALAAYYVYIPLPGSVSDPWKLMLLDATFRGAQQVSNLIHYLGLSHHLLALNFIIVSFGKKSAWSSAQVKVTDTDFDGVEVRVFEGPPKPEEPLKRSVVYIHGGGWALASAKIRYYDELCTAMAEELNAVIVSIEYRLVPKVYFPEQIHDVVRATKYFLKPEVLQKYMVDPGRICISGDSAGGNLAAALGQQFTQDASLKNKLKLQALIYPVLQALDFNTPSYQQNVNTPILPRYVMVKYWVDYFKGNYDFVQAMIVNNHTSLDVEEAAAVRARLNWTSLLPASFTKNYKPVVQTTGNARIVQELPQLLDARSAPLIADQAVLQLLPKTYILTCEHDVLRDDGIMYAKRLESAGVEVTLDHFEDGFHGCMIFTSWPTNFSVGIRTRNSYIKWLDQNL
As to the kind of experiment: competitive gel-based ABPP with FP-Rh in PC3 cells in situ. The test is classed as cell-based.

The IC50 is the concentration that gives 50% inhibition. Substance JW576 gave an IC50 of 340 ± 150 nM.
